“And” between values parts separate entries of the source, which are not always exact repeats. Identical values can stand only once. Like-named read-outs stand apart in the source and are kept apart here.
Columns and labels:
[1] = tested on: HL-60 human promyelocytic leukemia cells; test: MTT cytotoxicity assay, HL-60 cells; format: cell-based; details: for IC50: MTT, read-out: IC50
Procedure: For cytotoxicity experiments, cancer cells were seeded at a density of 5,000 (MCF-7), 10,000 (HL-60) or 2,000 cells/well (HCT116 and A549) in 96-well plates (TPP) for 24 h/37°C prior to the addition of examined agents. The non-cancerous cells, 3T3 and H9c2 cells, were cultured for 24 h/37°C in 96-well plates at a density of 10,000 cells/well, the medium was then changed to serum- and pyruvate-free DMEM (Sigma-Aldrich) and incubated with the cells for another 24 h/37°C. The cytotoxic effects of Bp4eT and its metabolites were studied at different concentrations after a 72 h/37°C incubation. In order to aid the dissolution of the lipophilic ligands, 0.1% dimethyl sulfoxide (v/v) (DMSO; Sigma-Aldrich) was present in the culture medium of all groups. At this concentration, DMSO had no effect on cellular proliferation or viability.
The viability of cells were determined using an MTT assay (Sigma-Aldrich) according to previously established methods. The optical density of soluble MTT was measured at λ = 570 nm, subtracting the λ = 690 nm background using a Tecan Infinite 200M plate reader (Tecan Group, Männedorf, Switzerland). The viability or proliferation of experimental groups was expressed as a percentage of the untreated controls (100%).
(§1) SigmaStat for Windows 3.5 (Systat Software, San Jose, CA, USA) statistical software package was utilized to analyze results. The data are expressed as the mean ± SD of a given number of experiments. Statistical significance was determined using a one-way ANOVA with a Bonferroni post-hoc test or Student’s t-test. The results were considered to be statistically significant when p < 0.05. The IC50 values were calculated using CalcuSyn 2.0 software (Biosoft, Cambridge, UK). Cell cycle analysis was evaluated using MultiCycle AV Software (Phoenix Flow Systems, San Diego, CA, USA).

MCF-7 cells [2] = test: Cellular 59Fe uptake from 59Fe2-transferrin; format: cell-based, human; parameters: key to Uptake 59Fe, Ave / Uptake 59Fe: % of internalized 59Fe in untreated control cells
From the text: Human transferrin (Sigma) was labeled with ^56Fe or ^59Fe (PerkinElmer, Massachusetts, USA) to produce ^56Fe2-transferrin or ^59Fe2-transferrin (^59Fe2-Tf), respectively, with a final specific activity of 500 pCi/pmol Fe, as previously described. Unbound ^59Fe was removed by exhaustive vacuum dialysis against a large excess of 0.15 M NaCl buffered to pH 7.4 with 1.4% NaHCO3 by standard methods.
The ability of the chelators to prevent cellular ^59Fe uptake from ^59Fe2-transferrin was examined using standard techniques. In brief, confluent MCF-7 cells in 6-well plates were incubated with 0.75 μM ^59Fe2-Tf for 3 h/37°C in the presence of Bp4eT or its metabolites (25 μM). The cells were then washed four times with ice-cold PBS and the level of internalized ^59Fe was determined by incubating the cell monolayer for 30 min/4°C with the general protease, Pronase (1 mg/mL; Sigma-Aldrich). The cells were then removed from the monolayer with a plastic spatula on ice and centrifuged for 1 min/12,000 x g/4°C. The supernatant represents membrane-bound, Pronase-sensitive ^59Fe that was released by the protease, while the Pronase-insensitive fraction represents internalized ^59Fe. The amount of internalized ^59Fe was expressed as a percentage of ^59Fe internalized by control (untreated) cells.

caspases 3/7 = test: Caspase activity, luminescent kit, caspases 3/7; format: cell-based, human; details: for kaspáza (3) a 7, raw signal / kaspáza (3) a 7, signal / viabilita: individual experiments by date; for kaspáza (3) a 7, raw signal, průměry / kaspáza (3) a 7, % kontroly / kaspáza (3) a 7, signal / viabilita, průměry: mean; for kaspáza (3) a 7, % kontroly / kaspáza (3) a 7, signal / viabilita / kaspáza (3) a 7, signal / viabilita, průměry: normalised to viability
Procedure: To assess the effect of the compounds on caspase activity, MCF-7 cells were incubated with 100 nM Bp4eT or its metabolites for 3, 24 or 72 h/37°C in 96-well plates, as described above. The cells were then lysed by adding 100 μL of cold lysis buffer (100 mM HEPES, 10 mM CHAPS, 10 mM D-L-dithiothreitol, pH 7.4) to 100 μL of medium in each well. Lysates were immediately frozen at -80°C. Thawed lysates were used to assess caspase activity using luminescent kits for caspases 3/7, 8 and 9 (Promega, Madison, WI, USA). The luminescence was measured using the Tecan Infinite 200M plate reader. Caspase activity in the experimental groups was corrected according to the cellular viability of each group and expressed as a percentage of activity of the untreated control (100%).

MCF-7 cells [3] = test: Cell cycle analysis by flow cytometry (propidium iodide); format: cell-based, human; details: 0.1 μM, 72 h, control 33%
Procedure: To examine the effect of the agents on the cell cycle, MCF-7 cells were seeded in 60 mm Petri dishes at a density of 240,000 cells/dish and incubated with Bp4eT or its metabolites for 72 h/37°C. The cells were then harvested, fixed by ethanol and stained by propidium iodide (Molecular Probes, Eugene, OR, USA) for 30 min/37°C, as described previously. Cells were analyzed using Accuri C6 flow cytometer (Becton Dickinson and Company, San Jose, CA USA). Propidium iodide was excited at λex = 488 nm and fluorescence analyzed at λem = 585 nm (FL-2) with a total of 10,000 events collected per analysis.
as §1

## CCN=CNN=C(c1ccccc1)c1ccccn1 [Bp4eA, N ^3-ethyl-N ^1-[phenyl(pyridin-2-yl)methylene]formamidrazone]
[1]; 3T3/HL-60
  Therapeutic index, IC50 non-cancerous cells / IC50 neoplastic cells: 19.7
[1]; H9c2/HL-60
  Therapeutic index, IC50 non-cancerous cells / IC50 neoplastic cells: 8.0
[1]; HL-60, 10 000 b/j, 3 μM, průměr (mean), sheet Bp4eA
  MTT, relative to control (0 = 100): 96.31
[1]; HL-60, 10 000 b/j, 3 μM, single experiment (date), sheet Bp4eA
  MTT, relative to control (0 = 100): 98.9707 and 95.9296 and 99.8753 and 90.4839
[1]; HL-60, 10 000 b/j, 10 μM, průměr (mean), sheet Bp4eA
  MTT, relative to control (0 = 100): 96.62
[1]; HL-60, 10 000 b/j, 10 μM, single experiment (date), sheet Bp4eA
  MTT, relative to control (0 = 100): 97.2125 and 99.0002 and 94.4459 and 95.8253
[1]; HL-60, 10 000 b/j, 30 μM, průměr (mean), sheet Bp4eA
  MTT, relative to control (0 = 100): 83.43
[1]; HL-60, 10 000 b/j, 30 μM, single experiment (date), sheet Bp4eA
  MTT, relative to control (0 = 100): 80.8819 and 83.0208 and 86.8317 and 82.995
[1]; HL-60, 10 000 b/j, 50 μM, průměr (mean), sheet Bp4eA
  MTT, relative to control (0 = 100): 62.90
[1]; HL-60, 10 000 b/j, 50 μM, single experiment (date), sheet Bp4eA
  MTT, relative to control (0 = 100): 62.3054 and 62.5036 and 62.1604 and 64.6299
[1]; HL-60, 10 000 b/j, 80 μM, průměr (mean), sheet Bp4eA
  MTT, relative to control (0 = 100): 16.51
[1]; HL-60, 10 000 b/j, 100 μM, průměr (mean), sheet Bp4eA
  MTT, relative to control (0 = 100): 1.77
[1]; HL-60, 10 000 b/j, 300 μM, průměr (mean), sheet Bp4eA
  MTT, relative to control (0 = 100): 1.66
[1]; HL-60, 10 000 b/j, single experiment (date), sheet Bp4eA
  IC50: 51 µM and 54.1 µM and 55.3 µM
[1]; Homo sapiens, HL-60, 72 h, HL-60, 72 h/37°C, mean ± SD, n ≥ 4
  IC50: 52.1 ± 3.3 µM
[1]; Homo sapiens, HL-60, HL-60, 10 000 b/j, průměr (mean), sheet Bp4eA
  IC50: 52.1 µM
[1]; Homo sapiens, HL-60, HL-60, 10 000 b/j, single experiment (date), sheet Bp4eA
  IC50: 47.9 µM
MCF-7 cells [2]; 25 μM, 3 h/37°C, MCF-7, 0.75 μM 59Fe2-Tf
  Internalized 59Fe uptake, % of the control: comparable to the untreated control
MCF-7 cells [2]; average of all replicates, Control Ave = 100
  Uptake 59Fe, Ave: 93.4629
MCF-7 cells [2]; single replicate (three per date), Control Ave = 100
  Uptake 59Fe: 92.0297 and 96.1364 and 98.7564 and 74.0112 and 96.1871 and 80.6939 and 103.039 and 106.85
Caspases 3/7; 3 hodiny
  kaspáza (3) a 7, raw signal: 1911.5 and 1519 and 1669 and 1490
  kaspáza (3) a 7, raw signal, průměry: 1647.38
  kaspáza (3) a 7, % kontroly: 103.19 % kontroly
  kaspáza (3) a 7, signal / viabilita: 19.7461 and 15.6915 and 17.241 and 15.3919
  kaspáza (3) a 7, signal / viabilita, průměry: 17.0176
Caspases 3/7; 24 hodin
  kaspáza (3) a 7, raw signal: 2415 and 2091.5 and 2337 and 2002.5
  kaspáza (3) a 7, raw signal, průměry: 2211.5
  kaspáza (3) a 7, % kontroly: 101.36 % kontroly
  kaspáza (3) a 7, signal / viabilita: 25.2632 and 21.8791 and 24.4473 and 20.9481
  kaspáza (3) a 7, signal / viabilita, průměry: 23.1344
Caspases 3/7; 72 hodin
  kaspáza (3) a 7, raw signal: 7143 and 7295 and 7483 and 8002
  kaspáza (3) a 7, raw signal, průměry: 7480.75
  kaspáza (3) a 7, % kontroly: 108.88 % kontroly
  kaspáza (3) a 7, signal / viabilita: 76.7734 and 78.4071 and 80.4278 and 86.006
  kaspáza (3) a 7, signal / viabilita, průměry: 80.4036
MCF-7 cells [3]
  Percentage of cells in the G2/M phase: slight, but significant (p < 0.01–0.05) decrease

Reference: publication PMC4604124, “In Vitro Characterization of the Pharmacological Properties of the Anti-Cancer Chelator, Bp4eT, and Its Phase I Metabolites” (PLoS ONE, 2015)
